Columns and labels:
[1] = target: T1, Protein cereblon/Poly [ADP-ribose] polymerase 1 (Homo sapiens, UniProt P09874+Q96SW2); experiment: PROTAC activity at CRBN/PARP1 in human HCT-116 cells assessed as degradation of PARP1; type: cell-based
Target sequence in this assay (P09874 whole entry): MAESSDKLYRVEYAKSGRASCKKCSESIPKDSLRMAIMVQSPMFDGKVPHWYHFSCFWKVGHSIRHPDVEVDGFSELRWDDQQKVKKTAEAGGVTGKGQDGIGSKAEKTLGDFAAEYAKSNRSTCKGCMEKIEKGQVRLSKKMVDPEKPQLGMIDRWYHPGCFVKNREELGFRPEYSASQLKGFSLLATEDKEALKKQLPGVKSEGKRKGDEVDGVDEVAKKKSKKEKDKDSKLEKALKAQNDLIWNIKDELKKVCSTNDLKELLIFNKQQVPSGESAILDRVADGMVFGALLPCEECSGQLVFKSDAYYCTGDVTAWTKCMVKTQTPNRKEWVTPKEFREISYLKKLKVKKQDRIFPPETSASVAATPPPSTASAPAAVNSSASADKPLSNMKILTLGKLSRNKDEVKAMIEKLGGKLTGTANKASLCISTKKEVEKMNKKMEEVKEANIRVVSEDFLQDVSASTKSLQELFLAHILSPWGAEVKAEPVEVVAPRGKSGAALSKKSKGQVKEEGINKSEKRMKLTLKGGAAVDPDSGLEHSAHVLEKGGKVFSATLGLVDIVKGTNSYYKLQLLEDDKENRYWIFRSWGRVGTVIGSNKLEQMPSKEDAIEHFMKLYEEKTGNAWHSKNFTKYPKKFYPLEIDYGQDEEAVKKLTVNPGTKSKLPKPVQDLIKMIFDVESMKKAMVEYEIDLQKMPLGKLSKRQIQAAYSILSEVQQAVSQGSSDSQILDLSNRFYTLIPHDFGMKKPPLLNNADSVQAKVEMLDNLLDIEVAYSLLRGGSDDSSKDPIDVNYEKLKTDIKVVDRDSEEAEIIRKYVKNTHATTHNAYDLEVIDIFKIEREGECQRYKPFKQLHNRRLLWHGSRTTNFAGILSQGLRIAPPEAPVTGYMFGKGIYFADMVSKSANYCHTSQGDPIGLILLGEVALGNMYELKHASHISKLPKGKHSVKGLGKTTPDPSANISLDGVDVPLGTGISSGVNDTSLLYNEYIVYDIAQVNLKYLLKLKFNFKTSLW
Target sequence in this assay (Q96SW2 whole entry): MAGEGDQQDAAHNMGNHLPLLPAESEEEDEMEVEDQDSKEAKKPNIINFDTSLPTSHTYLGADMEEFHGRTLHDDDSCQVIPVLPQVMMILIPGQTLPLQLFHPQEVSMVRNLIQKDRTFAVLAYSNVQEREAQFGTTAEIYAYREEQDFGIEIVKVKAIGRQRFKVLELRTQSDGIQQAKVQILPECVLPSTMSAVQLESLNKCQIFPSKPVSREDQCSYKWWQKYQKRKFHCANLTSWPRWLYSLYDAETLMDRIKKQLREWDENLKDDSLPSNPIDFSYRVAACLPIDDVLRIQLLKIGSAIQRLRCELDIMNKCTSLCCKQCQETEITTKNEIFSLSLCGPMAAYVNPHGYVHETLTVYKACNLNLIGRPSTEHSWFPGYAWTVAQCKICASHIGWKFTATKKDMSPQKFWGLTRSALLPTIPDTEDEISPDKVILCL

[2] = target: T1, Protein cereblon/Poly [ADP-ribose] polymerase 1; experiment: PROTAC activity at CRBN/PARP1 in human HCT-116 cells assessed as maximum degradation of PARP1 relative to control; type: cell-based
Target sequence in this assay (P09874 2-1014 limits assumed): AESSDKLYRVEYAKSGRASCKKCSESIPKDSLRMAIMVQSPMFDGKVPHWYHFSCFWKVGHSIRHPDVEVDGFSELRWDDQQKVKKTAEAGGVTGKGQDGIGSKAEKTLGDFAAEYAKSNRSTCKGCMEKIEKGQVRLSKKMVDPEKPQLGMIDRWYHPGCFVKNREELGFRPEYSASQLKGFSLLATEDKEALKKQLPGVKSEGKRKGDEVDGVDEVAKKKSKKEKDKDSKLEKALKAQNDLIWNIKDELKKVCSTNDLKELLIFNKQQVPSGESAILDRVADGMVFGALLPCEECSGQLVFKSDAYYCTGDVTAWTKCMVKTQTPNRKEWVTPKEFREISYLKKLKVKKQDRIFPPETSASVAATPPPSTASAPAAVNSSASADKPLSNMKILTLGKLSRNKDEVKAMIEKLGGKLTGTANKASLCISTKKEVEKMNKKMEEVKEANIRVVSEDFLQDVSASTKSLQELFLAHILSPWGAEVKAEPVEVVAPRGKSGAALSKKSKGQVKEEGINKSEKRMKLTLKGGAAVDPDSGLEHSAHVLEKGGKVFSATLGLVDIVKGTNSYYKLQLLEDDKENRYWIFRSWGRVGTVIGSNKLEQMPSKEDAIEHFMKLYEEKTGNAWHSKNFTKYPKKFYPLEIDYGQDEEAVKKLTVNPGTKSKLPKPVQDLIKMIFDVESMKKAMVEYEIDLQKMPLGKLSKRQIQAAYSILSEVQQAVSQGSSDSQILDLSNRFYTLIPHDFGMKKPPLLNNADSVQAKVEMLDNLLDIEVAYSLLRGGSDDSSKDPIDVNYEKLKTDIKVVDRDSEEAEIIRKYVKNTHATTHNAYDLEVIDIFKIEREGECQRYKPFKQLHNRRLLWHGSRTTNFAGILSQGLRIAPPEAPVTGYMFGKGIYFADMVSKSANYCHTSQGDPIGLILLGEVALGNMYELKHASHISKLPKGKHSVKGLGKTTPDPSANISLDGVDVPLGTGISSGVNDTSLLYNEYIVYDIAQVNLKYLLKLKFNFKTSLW
Target sequence in this assay (Q96SW2 whole entry partner): as the sequence (Q96SW2 whole entry) above

[3] = test system: LoVo; experiment: Cytotoxicity against human LoVo cells assessed as inhibition of cell growth measured after 72 hrs by CCK-8 method; type: functional, cell-based
[4] = Cytotoxicity against human BEAS-2B cells assessed as inhibition of cell growth measured after 72 hrs by CCK-8 method; type: toxicity, cell-based
[5] = test system: SW-620; experiment: Cytotoxicity against human SW620 cells assessed as inhibition of cell growth measured after 72 hrs by CCK-8 method; type: functional, cell-based; conditions: SW-620, 72 h
[6] = Cytotoxicity against HEK293T cells assessed as inhibition of cell growth measured after 72 hrs by CCK-8 method; type: toxicity, cell-based, HEK-293T; conditions: human
[7] = test system: HCT-116; experiment: Induction of apoptosis in human HCT-116 cells assessed as late apoptotic cells at 2.5 nM measured after 72 hrs by annexin V/FITC and PI staining based flow cytometry analysis (reference value: 6.80%); type: functional
[8] = test system: HCT-116; experiment: Induction of apoptosis in human HCT-116 cells assessed as early apoptotic cells at 2.5 nM measured after 72 hrs by annexin V/FITC and PI staining based flow cytometry analysis (reference value: 3.43%); type: functional
[9] = test system: HCT-116; experiment: Induction of apoptosis in human HCT-116 cells assessed as necrotic cells at 2.5 nM measured after 72 hrs by annexin V/FITC and PI staining based flow cytometry analysis (reference value: 0.16%); type: functional
[10] = test system: HCT-116; experiment: Induction of apoptosis in human HCT-116 cells assessed as viable cells at 2.5 nM measured after 72 hrs by annexin V/FITC and PI staining based flow cytometry analysis (reference value: 89.6%); type: functional; conditions: read-out: Activity
[11] = test system: HCT-116; experiment: Cytotoxicity against human HCT-116 cells assessed as inhibition of cell growth measured after 72 hrs by CCK-8 method; type: functional, cell-based; conditions: HCT-116, 72 h

SMILES | DC50 [1] [µM] | Emax [2] [%] | other results
NC(=O)c1cccc2cn(-c3ccc([C@@H]4CCCN(C(=O)COCCOCCOCCOCCNc5ccc6c(c5)C(=O)N(C5CCC(=O)NC5=O)C6=O)C4)cc3)nc12 (some centres undefined) | 0.06 | 78.9 | –
NC(=O)c1cccc2cn(-c3ccc([C@@H]4CCCN(C(=O)COCCOCCOCCNc5ccc6c(c5)C(=O)N(C5CCC(=O)NC5=O)C6=O)C4)cc3)nc12 (some centres undefined) | > 20 | 37.4 | –
NC(=O)c1cccc2cn(-c3ccc([C@@H]4CCCN(C(=O)COCCOCCOCCOCCOCCNc5ccc6c(c5)C(=O)N(C5CCC(=O)NC5=O)C6=O)C4)cc3)nc12 (some centres undefined) | 19.1 | 47.7 | –
NC(=O)c1cccc2cn(-c3ccc([C@@H]4CCCN(C(=O)CCCCCCNc5ccc6c(c5)C(=O)N(C5CCC(=O)NC5=O)C6=O)C4)cc3)nc12 (some centres undefined) | > 20 | 37.3 | –
O=C(CCCCCCCCCCC(=O)N1CCN(C(=O)c2cc(Cc3n[nH]c(=O)c4ccccc34)ccc2F)CC1)NCCNc1cccc2c1C(=O)N(C1CCC(=O)NC1=O)C2=O (centres undefined) | – | – | IC50 [3]: > 10 µM; IC50 at 72 h [4]: 3.7 µM; IC50 [5]: > 10 µM; IC50 at 72 h [6]: 1.86 µM
NC(=O)c1cccc2cn(-c3ccc([C@@H]4CCCN(C(=O)C5CCN(CC6CN(c7ccc8c(c7)C(=O)N(C7CCC(=O)NC7=O)C8=O)C6)CC5)C4)cc3)nc12 (some centres undefined) | 19 | 53.9 | –
CCc1c2c(nc3ccc(O)cc13)-c1cc3c(c(=O)n1C2)COC(=O)[C@]3(O)CC [7-ETHYL-10-HYDROXYCAMPTOTHECIN] | – | – | Activity [7]: 17.1%; IC50 [3]: 0.0029 µM; Activity [8]: 5.48%; Activity [9]: 0.77%; viability at 0.0025 µM [10]: 76.7%; IC50 [11]: 0.0029 µM
NC(=O)c1cccc2cn(-c3ccc([C@@H]4CCCN(C(=O)C5CCN(C(=O)C6CCN(c7ccc8c(c7)C(=O)N(C7CCC(=O)NC7=O)C8=O)CC6)CC5)C4)cc3)nc12 (some centres undefined) | > 20 | 15.7 | –
NC(=O)c1cccc2cn(-c3ccc([C@@H]4CCCN(C(=O)CCCCNc5ccc6c(c5)C(=O)N(C5CCC(=O)NC5=O)C6=O)C4)cc3)nc12 (some centres undefined) | > 20 | 29.8 | –
NC(=O)c1cccc2cn(-c3ccc([C@@H]4CCCNC4)cc3)nc12 [NIRAPARIB] | – | – | IC50 [5]: 0.49 µM
NC(=O)c1cccc2cn(-c3ccc([C@@H]4CCCN(CCC5CCN(CCC6CCN(CC7CN(c8ccc9c(c8)C(=O)N(C8CCC(=O)NC8=O)C9=O)C7)CC6)CC5)C4)cc3)nc12 (some centres undefined) | 0.03 | 71 | –
NC(=O)c1cccc2cn(-c3ccc([C@@H]4CCCN(C(=O)CC5CCN(C(=O)CC6CCN(C(=O)C7CCN(c8ccc9c(c8)C(=O)N(C8CCC(=O)NC8=O)C9=O)CC7)CC6)CC5)C4)cc3)nc12 (some centres undefined) | > 20 | 6.96 | –
NC(=O)c1cccc2cn(-c3ccc([C@@H]4CCCN(C(=O)COCCOCCNc5ccc6c(c5)C(=O)N(C5CCC(=O)NC5=O)C6=O)C4)cc3)nc12 (some centres undefined) | > 20 | 49.1 | –
NC(=O)c1cccc2cn(-c3ccc([C@@H]4CCCN(C(=O)CCCCCCCCNc5ccc6c(c5)C(=O)N(C5CCC(=O)NC5=O)C6=O)C4)cc3)nc12 (some centres undefined) | 2.21 | 58.8 | –

More lines, main results first:

DC50 [1] [µM] | Emax [2] [%] | SMILES | other results
> 20 | – | NC(=O)c1cccc2cn(-c3ccc([C@@H]4CCCN(C(=O)CC5CCN(CC6CCN(c7ccc8c(c7)C(=O)N(C7CCC(=O)NC7=O)C8=O)C6)CC5)C4)cc3)nc12 (some centres undefined) | –
0.04 | 57.1 | NC(=O)c1cccc2cn(-c3ccc([C@@H]4CCCN(C(=O)CC5CCN(CCC6CCN(CC7CCN(c8ccc9c(c8)C(=O)N(C8CCC(=O)NC8=O)C9=O)CC7)CC6)CC5)C4)cc3)nc12 (some centres undefined) | –
> 20 | 35.6 | NC(=O)c1cccc2cn(-c3ccc([C@@H]4CCCN(C(=O)CC5CCN(C(=O)C6CCN(c7ccc8c(c7)C(=O)N(C7CCC(=O)NC7=O)C8=O)CC6)CC5)C4)cc3)nc12 (some centres undefined) | –
20.1 | 49.8 | NC(=O)c1cccc2cn(-c3ccc([C@@H]4CCCN(C(=O)CC5CCN(C(=O)CC6CCN(CC7CCN(c8ccc9c(c8)C(=O)N(C8CCC(=O)NC8=O)C9=O)C7)CC6)CC5)C4)cc3)nc12 (some centres undefined) | –
> 20 | 30.1 | NC(=O)c1cccc2cn(-c3ccc([C@@H]4CCCN(C(=O)CC5CCN(CCC6CCN(c7ccc8c(c7)C(=O)N(C7CCC(=O)NC7=O)C8=O)CC6)CC5)C4)cc3)nc12 (some centres undefined) | –
> 20 | 33.6 | NC(=O)c1cccc2cn(-c3ccc([C@@H]4CCCN(C(=O)CC5CCN(CCC6CCN(CC7CCN(c8ccc9c(c8)C(=O)N(C8CCC(=O)NC8=O)C9=O)C7)CC6)CC5)C4)cc3)nc12 (some centres undefined) | –
> 20 | 31.8 | NC(=O)c1cccc2cn(-c3ccc([C@@H]4CCCN(C(=O)CC5CCN(CC6CN(c7ccc8c(c7)C(=O)N(C7CCC(=O)NC7=O)C8=O)C6)CC5)C4)cc3)nc12 (some centres undefined) | –
15.6 | 59.4 | NC(=O)c1cccc2cn(-c3ccc([C@@H]4CCCN(C(=O)CC5CCN(CC6CCN(c7ccc8c(c7)C(=O)N(C7CCC(=O)NC7=O)C8=O)CC6)CC5)C4)cc3)nc12 (some centres undefined) | –
> 20 | – | NC(=O)c1cccc2cn(-c3ccc([C@@H]4CCCN(C(=O)CC5CCN(C(=O)CC6CCN(c7ccc8c(c7)C(=O)N(C7CCC(=O)NC7=O)C8=O)CC6)CC5)C4)cc3)nc12 (some centres undefined) | –
16.3 | 47.6 | NC(=O)c1cccc2cn(-c3ccc([C@@H]4CCCN(C(=O)CC5CCN(C(=O)CC6CCN(CC7CN(c8ccc9c(c8)C(=O)N(C8CCC(=O)NC8=O)C9=O)C7)CC6)CC5)C4)cc3)nc12 (some centres undefined) | –
0.23 | 65.1 | NC(=O)c1cccc2cn(-c3ccc([C@@H]4CCCN(C(=O)CC5CCN(C(=O)CC6CCN(CC7CCN(c8ccc9c(c8)C(=O)N(C8CCC(=O)NC8=O)C9=O)CC7)CC6)CC5)C4)cc3)nc12 (some centres undefined) | –
0.5 | 83.6 | NC(=O)c1cccc2cn(-c3ccc([C@@H]4CCCN(C(=O)CC5CCN(CCC6CCN(CC7CN(c8ccc9c(c8)C(=O)N(C8CCC(=O)NC8=O)C9=O)C7)CC6)CC5)C4)cc3)nc12 (some centres undefined) | –
> 20 | 32.8 | NC(=O)c1cccc2cn(-c3ccc([C@@H]4CCCN(C(=O)C5CCN(CC6CCN(c7ccc8c(c7)C(=O)N(C7CCC(=O)NC7=O)C8=O)C6)CC5)C4)cc3)nc12 (some centres undefined) | –
> 20 | 30.2 | NC(=O)c1cccc2cn(-c3ccc([C@@H]4CCCN(C(=O)C5CCN(CC6CCN(c7ccc8c(c7)C(=O)N(C7CCC(=O)NC7=O)C8=O)CC6)CC5)C4)cc3)nc12 (some centres undefined) | –
